Laboratory results taken from patent publication US4312883A, “Furocoumarin for the photochemotherapy of psoriasis and related skin diseases” (Consiglio Nazionale delle Ricerche, priority 1979, dated 1982).

system: DNA; assay: Dark complex formation (intercalation) with DNA in the ground state, binding parameters; design: K (association constants) of the complexes with DNA: unit not given here; settings: in vitro, ground state, McGhee and Von Hippel method
Source text: Dark complex formation: It is known from F. Dall'Acqua, et al. Chem.-Biol. Interactions 21,103 (1978) that the intercalated complex formed by furocoumarins with DNA strongly affects the successive photoaddition increasing the rate of photobinding. […] These parameters have been determined according to the method of McChee and Von Hippel, J.Mol.Biol, 86, 469 (1974).
(a) Determined according to Mc Ghee and Von Hippel, J. Mol. Biol.,

Row | SMILES | K (association constants) of the complexes with DNA
1 | Cc1oc2ccc3c(C)cc(=O)oc3c2c1CO [4'-hydroxymethyl-4,5'-dimethylangelicin, 4,5'-dimethyl-4'-hydroxy-methylangelicin] | 1250
2 | COCc1c(C)oc2ccc3c(C)cc(=O)oc3c12 [4'-methoxymethyl-4,5'-dimethylangelicin, 4,5'-dimethyl-4'-methoxymethylangelicin] | 700
3 | Cc1cc(=O)oc2c1ccc1occc12 [4-methylangelicin] | 1400

The next lines start with the values.

Row | K (association constants) of the complexes with DNA | SMILES
4 | 1200 | Cc1cc2c(ccc3ccc(=O)oc32)o1 [5'-methylangelicin, 5'methylangelicin]
5 | 1750 | Cc1cc2c(cc(C)c3ccc(=O)oc32)o1 [5,5'-dimethylangelicin]

same assay, conditions: in vitro, ground state; molecules bound per nucleotide

Row | SMILES | 1/n (frequency of binding sites)
6 | Cc1oc2ccc3c(C)cc(=O)oc3c2c1CO [4'-hydroxymethyl-4,5'-dimethylangelicin, 4,5'-dimethyl-4'-hydroxy-methylangelicin] | 0.087
7 | COCc1c(C)oc2ccc3c(C)cc(=O)oc3c12 [4'-methoxymethyl-4,5'-dimethylangelicin, 4,5'-dimethyl-4'-methoxymethylangelicin] | 0.050
8 | Cc1cc(=O)oc2c1ccc1occc12 [4-methylangelicin] | 0.076

Further lines, results first:

Row | 1/n (frequency of binding sites) | SMILES
9 | 0.073 | Cc1cc2c(ccc3ccc(=O)oc32)o1 [5'-methylangelicin, 5'methylangelicin]
10 | 0.085 | Cc1cc2c(cc(C)c3ccc(=O)oc32)o1 [5,5'-dimethylangelicin]

same assay, conditions: relative (ang = 100)

Row | SMILES | 1/n (frequency of binding sites), relative | K (association constants), relative
11 | Cc1oc2ccc3c(C)cc(=O)oc3c2c1CO [4'-hydroxymethyl-4,5'-dimethylangelicin, 4,5'-dimethyl-4'-hydroxy-methylangelicin] | 138 | 223
12 | COCc1c(C)oc2ccc3c(C)cc(=O)oc3c12 [4'-methoxymethyl-4,5'-dimethylangelicin, 4,5'-dimethyl-4'-methoxymethylangelicin] | 80 | 125
13 | Cc1cc(=O)oc2c1ccc1occc12 [4-methylangelicin] | 120 | 250

The remaining lines, values ahead:

Row | 1/n (frequency of binding sites), relative | K (association constants), relative | SMILES
14 | 116 | 214 | Cc1cc2c(ccc3ccc(=O)oc32)o1 [5'-methylangelicin, 5'methylangelicin]
15 | 135 | 312 | Cc1cc2c(cc(C)c3ccc(=O)oc32)o1 [5,5'-dimethylangelicin]

system: DNA; assay: Photobinding to DNA, rate constants of the photoreactions; assay type: biochemical; settings: in vitro, UV-A irradiated
Source text: (b) Determined according to F. Dall'Acqua, S. Marciani, F. Zambon and G.
Rodighiero, Photochem. Photobiol., 29,489(1979).
Photobinding capacity to DNA: The introduction of one or two methyl groups in the molecule of angelicin leads to a strong increase of the photobinding to DNA; see Table II. […] Photobiol., 29, 489 (1979).

Row | SMILES | Rate constants of the photoreactions with DNA
16 | Cc1oc2ccc3c(C)cc(=O)oc3c2c1CO [4'-hydroxymethyl-4,5'-dimethylangelicin, 4,5'-dimethyl-4'-hydroxy-methylangelicin] | 3.2 K × 10^-2 × min^-1
17 | COCc1c(C)oc2ccc3c(C)cc(=O)oc3c12 [4'-methoxymethyl-4,5'-dimethylangelicin, 4,5'-dimethyl-4'-methoxymethylangelicin] | 1.6 K × 10^-2 × min^-1
18 | Cc1cc(=O)oc2c1ccc1occc12 [4-methylangelicin] | 1.61 K × 10^-2 × min^-1

Other lines, results leading:

Row | Rate constants of the photoreactions with DNA | SMILES
19 | 2.11 K × 10^-2 × min^-1 | Cc1cc2c(ccc3ccc(=O)oc32)o1 [5'-methylangelicin, 5'methylangelicin]
20 | 2.73 K × 10^-2 × min^-1 | Cc1cc2c(cc(C)c3ccc(=O)oc32)o1 [5,5'-dimethylangelicin]

same assay, conditions: relative (ang = 100)

Row | SMILES | Rate constants of the photoreactions with DNA, relative
21 | COCc1c(C)oc2ccc3c(C)cc(=O)oc3c12 [4'-methoxymethyl-4,5'-dimethylangelicin, 4,5'-dimethyl-4'-methoxymethylangelicin] | 145
22 | Cc1cc(=O)oc2c1ccc1occc12 [4-methylangelicin] | 146

Further lines, results first:

Row | Rate constants of the photoreactions with DNA, relative | SMILES
23 | 191 | Cc1cc2c(ccc3ccc(=O)oc32)o1 [5'-methylangelicin, 5'methylangelicin]
24 | 248 | Cc1cc2c(cc(C)c3ccc(=O)oc32)o1 [5,5'-dimethylangelicin]

system: DNA; assay: Capacity to form inter-strand cross-linkages in DNA; assay type: biochemical; settings: (psr = 100)
Method: All these compounds were not suitable to photoinduce in DNA inter-strand cross-linkages. […] These tests were carried out according to the method of F. Bordin et al., Photochem. Photobiol., 29,1063 (1979).

Row | SMILES | capacity to form interstrand cross-linkages
25 | Cc1oc2ccc3c(C)cc(=O)oc3c2c1CO [4'-hydroxymethyl-4,5'-dimethylangelicin, 4,5'-dimethyl-4'-hydroxy-methylangelicin] | 0
26 | COCc1c(C)oc2ccc3c(C)cc(=O)oc3c12 [4'-methoxymethyl-4,5'-dimethylangelicin, 4,5'-dimethyl-4'-methoxymethylangelicin] | 0
27 | Cc1cc(=O)oc2c1ccc1occc12 [4-methylangelicin] | 0
28 | Cc1cc2c(ccc3ccc(=O)oc32)o1 [5'-methylangelicin, 5'methylangelicin] | 0
29 | Cc1cc2c(cc(C)c3ccc(=O)oc32)o1 [5,5'-dimethylangelicin] | 0

system: DNA synthesis in Ehrlich ascites tumor cells; assay: Inhibition of DNA synthesis (and DNA and RNA synthesis) on irradiation at 365 nm; assay type: cell-based; settings: relative (ang = 100)
Source text: (§1) Photobiological activity: A significant test for assessing photobiological activity of alkylangelicins is the study of their capacity to inhibit DNA and RNA synthesis in Ehrlich ascites tumor cells. In Table III the capacity of inhibition is expressed as ID50, that is the irradiation does, in terms of quanta at 365 nm, necessary to inhibit in these cells the 50% of the DNA and RNA synthesis in the presence of a constant amount of alkylangelicin. […] Moreover, in general it can be observed that in this simple biological system a close correlation exists between photobiological activity and the capacity to induce photochemical lesions in DNA, that is photoreactivity.

Row | SMILES | inhibition of DNA synthesis, relative
30 | Cc1oc2ccc3c(C)cc(=O)oc3c2c1CO [4'-hydroxymethyl-4,5'-dimethylangelicin, 4,5'-dimethyl-4'-hydroxy-methylangelicin] | 272
31 | COCc1c(C)oc2ccc3c(C)cc(=O)oc3c12 [4'-methoxymethyl-4,5'-dimethylangelicin, 4,5'-dimethyl-4'-methoxymethylangelicin] | 110
32 | Cc1cc(=O)oc2c1ccc1occc12 [4-methylangelicin] | 104
33 | Cc1cc2c(ccc3ccc(=O)oc32)o1 [5'-methylangelicin, 5'methylangelicin] | 150
34 | Cc1cc2c(cc(C)c3ccc(=O)oc32)o1 [5,5'-dimethylangelicin] | 180

system: RNA synthesis in Ehrlich ascites tumor cells; assay: Inhibition of RNA synthesis on irradiation at 365 nm; assay type: cell-based; settings: relative (ang = 100)
Source text: as §1

Row | SMILES | inhibition of RNA synthesis, relative
35 | Cc1oc2ccc3c(C)cc(=O)oc3c2c1CO [4'-hydroxymethyl-4,5'-dimethylangelicin, 4,5'-dimethyl-4'-hydroxy-methylangelicin] | 169
36 | COCc1c(C)oc2ccc3c(C)cc(=O)oc3c12 [4'-methoxymethyl-4,5'-dimethylangelicin, 4,5'-dimethyl-4'-methoxymethylangelicin] | 169
37 | Cc1cc(=O)oc2c1ccc1occc12 [4-methylangelicin] | 129
38 | Cc1cc2c(ccc3ccc(=O)oc32)o1 [5'-methylangelicin, 5'methylangelicin] | 134
39 | Cc1cc2c(cc(C)c3ccc(=O)oc32)o1 [5,5'-dimethylangelicin] | 355

system: epidermal DNA synthesis; assay: Inhibition of epidermal DNA synthesis in the mouse in vivo after topical application and UV-A irradiation; settings: light or radiation study, 0.01% methanol solutions, UV-A 9 J/cm^2, read-out: Percent inhibition ± standard error of epidermal DNA synthesis
Method: DNA samples were dissolved in water and their specific radioactivity determined.
Each drug substance was studied using at least six mice.

Row | SMILES | inhibition in vivo at 0.01 %
40 | Cc1cc(=O)oc2c1ccc1occc12 [4-methylangelicin] | 68.5 ± 19.5%
41 | Cc1cc2c(cc(C)c3ccc(=O)oc32)o1 [5,5'-dimethylangelicin] | 48.3 ± 2.9%

system: epidermal DNA synthesis; assay: Inhibition of the synthesis of epidermal DNA of the mouse in vivo after oral administration and UV-A irradiation; settings: oral 0.25 g/Kg, UV-A 9 J/cm^2 after two hours
Source text: Considering that the topical skin tests carried out on mice to evaluate the effectiveness of these substances has yielded data which correlate well with the clinical data, such a test conveniently modified has been adopted to evaluate the effectiveness of the alkylangelicins after oral administration followed by UV-A irradiation.
In this connection experiments have been conducted using mice 20±2 g in weight, that were starved for three hours before oral administration of the alkylangelicins. Groups of 5 mice were fed a suspension of 0.5% methylcellulose in water containing the alkylangelicins of the invention at a dosage of 0.25 g/Kg. The animals were kept in the dark for two hours, that is for the time necessary for absorption, systemic distribution and localization of the drug at the level of the skin. The animals were then irradiated with UV-A light, 9 J/cm^2. Later the animals were sacrificed and the inhibition of the epidermal DNA synthesis was tested; the results obtained are reported in Table VI. The skin on the back, protected from light by a dark paper, was assumed as a control. As a reference 8-MOP, used under the same experimental conditions, was also tested. The significant activity of the alkylangelicins according to the present invention, higher than that of 8-MOP, in inhibiting the epidermal DNA synthesis in mice upon oral administration allows one to consider these compounds as also being effective for oral administration to humans for photochemotherapy of psoriasis and of other skin diseases that are characterized by cellular hyperproliferation.

Row | SMILES | Percent inhibition ± standard error of epidermal DNA synthesis
42 | Cc1oc2ccc3c(C)cc(=O)oc3c2c1CO [4'-hydroxymethyl-4,5'-dimethylangelicin, 4,5'-dimethyl-4'-hydroxy-methylangelicin] | 54.2 ± 6.8%

system: psoriasis; assay: Topical photochemotherapy of psoriasis in patients; assay type: in vivo, human; settings: topical 0.1% w/v + UV-A; Excellent = 90% clearance
Source text: Clinical data: The effectiveness of certain representative alkylangelicins according to the present invention, specifically 5-methylangelicin, 4,5'-dimethylangelicin, 4'-hydroxymethyl-4,5'-dimethylangelicin, 4'-hydroxymethyl-4,5'-dimethylangelicin and 4,5-dimethylangelicin, has been tested by measuring their capacity to resolve psoriasis in various patients. For a direct comparison the efficacy of the parent unsubstituted angelicin and that of three very effective linear furocoumarins, that is 8-methoxypsoralen (8-MOP), 5-methoxypsoralen (5-MOP), and 4,5',8-trimethylpsoralen (TMP) were also tested.
In each treatment four areas of the affected skin were used;
(a) In the first area an alcohol lotion, containing 10% glycerine, of the tested compound (0.1% w/v) was applied until a concentration of […] was reached then left to evaporate by the heat of the body. After half an hour the area was irradiated with high intensity UV-A emitting low pressure mercury fluorescent lamps with a wavelength of 320-400 nm. The irradiation doses were selected in the range of 4.5-13 J/cm^2 for each application as a function of the sensitivity of the skin of the patients; when the skin sensitivity was higher, the light doses were lower and vice versa.
(b) A second area was treated with an alcohol solution of the drug as in (a) but it was covered and maintained in the dark.
(c) A third area, where the drug was not applied, was irradiated as in (a) but in general with higher UV-A doses.
(d) A fourth area was not treated at all, neither with the drug, not with UV-A.
The treatment with the alkylangenlicins referred to above was repeated 5 time a week for two or more weeks; the total number of treatments was between 8 and 20 per subject. In some cases, as for instance with 5-methylangelicin, a good clearing of psoriasis was observed after 8 treatments.
In order to avoid induction of photosensitization processes such as redness and erythema in the reference tests made with the linear furocoumarins 8-MOP, 5-MOP, TMP, lower light doses were used than in the case of alkylangelicins, the treatments were repeated at a frequency of no more than three times a week.

Row | SMILES | No. of patients with Excellent result
43 | Cc1oc2ccc3c(C)cc(=O)oc3c2c1CO [4'-hydroxymethyl-4,5'-dimethylangelicin, 4,5'-dimethyl-4'-hydroxy-methylangelicin] | 0 patients

same assay, conditions: topical 0.1% w/v + UV-A; Fair = 50-70%

Row | SMILES | No. of patients with Fair result
44 | Cc1oc2ccc3c(C)cc(=O)oc3c2c1CO [4'-hydroxymethyl-4,5'-dimethylangelicin, 4,5'-dimethyl-4'-hydroxy-methylangelicin] | 2 patients

same assay, conditions: topical 0.1% w/v + UV-A; Good = 70-90%

Row | SMILES | No. of patients with Good result
45 | Cc1oc2ccc3c(C)cc(=O)oc3c2c1CO [4'-hydroxymethyl-4,5'-dimethylangelicin, 4,5'-dimethyl-4'-hydroxy-methylangelicin] | 1 patients

same assay, conditions: topical 0.1% w/v + UV-A; Poor 40%

Row | SMILES | No. of patients with Poor result
46 | Cc1oc2ccc3c(C)cc(=O)oc3c2c1CO [4'-hydroxymethyl-4,5'-dimethylangelicin, 4,5'-dimethyl-4'-hydroxy-methylangelicin] | 1 patients

system: skin; assay: Relative skin phototoxicity; settings: (psr = 100)

Row | SMILES | Relative skin phototoxicity
47 | Cc1oc2ccc3c(C)cc(=O)oc3c2c1CO [4'-hydroxymethyl-4,5'-dimethylangelicin, 4,5'-dimethyl-4'-hydroxy-methylangelicin] | 0
48 | COCc1c(C)oc2ccc3c(C)cc(=O)oc3c12 [4'-methoxymethyl-4,5'-dimethylangelicin, 4,5'-dimethyl-4'-methoxymethylangelicin] | 0
49 | Cc1cc(=O)oc2c1ccc1occc12 [4-methylangelicin] | 0
50 | Cc1cc2c(ccc3ccc(=O)oc32)o1 [5'-methylangelicin, 5'methylangelicin] | 0
51 | Cc1cc2c(cc(C)c3ccc(=O)oc32)o1 [5,5'-dimethylangelicin] | 0
